Reference: publication PMC8821551, “Binding of cationic analogues of α-MSH to lipopolysaccharide and disruption of the cytoplasmic membranes caused bactericidal action against Escherichia coli” (Scientific Reports, 2022)
Residues, ends and D or L forms follow the SMILES beside them.

Tests used:
Assay type in all cases: cell-based, Escherichia coli
[1] = test system: E. coli ATCC 25922; assay: Killing assay (killing kinetics), logarithmic phase cells; conditions: for concentration at which a bactericidal effect (> 3 log reduction) was achieved: logarithmic phase E. coli cells (Fig. 1); for log reduction in cell viability: average ± SE, SEM
Experimental: (§1) For this study, a well-characterized strain of E. coli (ATCC 25922) was used. The strain was stored at − 80 °C in 15% (v/v) glycerol until sub-cultured onto LB agar plates for use.
(§2) The antibacterial activity of α-MSH and its cationic analogues was determined against both logarithmic (2–3 h) and stationary (16–18 h) phase of E. coli cells in LB medium. The bacterial suspension was pelleted, washed, and diluted in HEPES-glucose buffer (5 mM HEPES, 20 mM glucose, pH 7.4) to adjust the cell density by measuring the OD = 0.5 (10^8 CFU/mL) at 600 nm using a spectrophotometer. This suspension was used to obtain the desired inoculum sizes (10^5 CFU/mL, 10^6 CFU/mL, and 10^7 CFU/mL). The inoculums were exposed to various concentrations of peptides (1 µM, 2 µM, 5 µM, and 10 µM) and incubated at 37 °C. Untreated E. coli cells were also included as a control. At selected time points (0 min, 15 min, 30 min, 60 min, and 120 min), aliquots were taken out, and survival of E. coli cells was determined by quantitative plating on LB agar after appropriate dilution in the same buffer. The plates were incubated overnight at 37 °C, followed by colony counting. Each experiment was performed at least three times on three independent days.

[2] = test system: stationary phase E. coli cells; assay: Killing assay, stationary phase cells; conditions: 10^5 CFU/mL
Experimental: as §1, §2

[3] = test system: E. coli outer membrane; assay: Outer membrane permeabilization assay (NPN uptake); conditions: 10^8 CFU/mL mid-log cells, 10 μM NPN, relative to 10 µM polymyxin B = 100%
Experimental: The outer membrane permeabilization assay was done as described in the literature with slight modifications. Briefly, bacterial cells were grown to mid-log phase in LB medium, washed and diluted to 10^8 CFU/mL in HEPES-glucose buffer. Next, this bacterial suspension was treated with 10 μM NPN probe and subsequently challenged with increasing concentrations of peptides (1 µM to 20 µM). Changes in the fluorescence intensity of NPN were measured with the help of Shimadzu RF-5301 PC spectrofluorimeter (excitation at 350 nm and emission at 420 nm). Increased intensity of emission resulted from the damage to the bacterial outer membrane and was measured until no further increase in fluorescence was observed. NPN uptake was calculated using the following formula: %NPNuptake=Fobs-F0/F100-F0×100 where Fobs is the NPN fluorescence intensity after the peptide treatment, F0 is the NPN fluorescence with untreated E. coli cells, and F100 is the NPN fluorescence in the presence of 10 µM polymyxin B (a positive control).

[4] = test system: E. coli cytoplasmic or inner membrane; assay: Membrane depolarization assay (DiSC3(5)); conditions: DiSC3(5) 0.4 µM, 0.2 mM EDTA, 10^6 CFU/mL mid-log cells, HEPES-glucose buffer; peptide 1 to 10 µM
Experimental: (§3) The membrane depolarization of E. coli cells was determined using a potentiometric fluorescent probe DiSC3(5), as described elsewhere. Briefly, mid-log phase E. coli cells were diluted to 10^6 CFU/mL in the same HEPES-glucose buffer and were incubated with DiSC3(5) and EDTA at 0.4 µM and 0.2 mM concentrations, respectively, for 1 h in the dark at 37 °C, till the maximum uptake of the probe occurred. Increasing concentrations of the studied peptides from 1 µM to 10 µM were then added to these dye-loaded cells in a quartz cuvette, and the fluorescence intensity was measured on spectrofluorimeter (Shimadzu RF-5301 PC) set as excitation at 622 nm and emission at 670 nm. The increase in fluorescence intensity accounted for the dissipation of membrane potential caused due to peptide treatment. Cells treated with 10 µM melittin were used as a positive control. Simultaneously, the dye-loaded cells were plated onto LB agar to estimate bacterial cell death.

[5] = test system: dye-loaded E. coli cells; assay: Viability of DiSC3(5) dye-loaded cells by plating; conditions: dye-loaded cells 10^6, HEPES-glucose buffer, two different days
Experimental: as §3
Figure S1: Survival of dye-loaded cells (10^6) treated with various concentrations of peptides that correspond to the inner membrane depolarization. The dye-loaded E. coli cells suspended in HEPES-glucose buffer ([…]) were incubated with different concentration of α-MSH and its analogues for 2 minutes and further diluted in the same buffer and plated on LB agar plates. The plates were further incubated at 37 °C for 16 h. Next day the colonies were counted.^1 The experiment was performed on two different days and the representative values (mean ± SE) are shown in graph. (⁎, P < 0.05; ⁎⁎, P < 0.01, compared to that of control at the same concentration).

[6] = test system: E. coli cells; assay: Membrane permeabilization assay (PI uptake, flow cytometry); conditions: 1 h; for PI positive cells: at lower and higher concentrations, from 2 to 10 µM, 10^6 CFU/mL, PI 1.3 µg/mL, 37 °C, flow cytometry; for cell viability on plating the cell suspension used for the PI uptake assay, in words: same cell density and peptide concentrations as PI uptake experiment
Experimental: Membrane permeabilization of E. coli cells was determined via propidium iodide (PI) uptake assay through flow cytometry as described previously with slight modifications. Briefly, mid-log phase E. coli cells were adjusted to 10^6 CFU/mL in the HEPES-glucose buffer. Next, cells were incubated with propidium iodide (PI) at 1.3 µg/mL concentration for 30 min in the dark. After incubation, PI-loaded cells were treated with a range of peptide concentrations, i.e., 1 µM, 2 µM, 5 µM, and 10 µM, at 37 °C for 1 h, and PI fluorescence intensity was measured through Becton Dickinson (BD) FACS verse (San Jose, CA) flow cytometer using excitation at 544 nm and emission at 620 nm.
Figure S2: Histograms of E. coli cells treated with 2 µM concentration of α-MSH and its analogues and 1 µM concentration of polymyxin B for 1 h. Towards monitoring the membrane permeabilizations of E. coli cells, propidium iodide (PI) uptake assay through flow cytometry was performed using the previously standardized method with mild modifications ^2. Briefly, mid-log phase grown E. coli cells (10^6 CFU/mL) suspended in the HEPES-glucose buffer were incubated with propidium iodide (PI) at a concentration of 1.3 µg/mL for 30 min in dark. After incubation, PI loaded cells were treated with a range of peptide concentrations; 1 µM, 2 µM, 5 µM and 10 µM at 37 °C for 1 h, and PI fluorescence intensity was measured through Becton Dickinson (BD) FACS verse (San Jose, CA) flow cytometer using excitation at 544 nm and emission at 620 nm.

[7] = peptide 1 μM, HEPES-glucose buffer, average of three independent days
[8] = peptide 20 μM (highest concentration)
[9] = peptide 10 µM, 2 min of exposure

With `CSCC[C@H](NC(=O)[C@H](CCCCN)NC(=O)[C@H](Cc1ccc(O)cc1)NC(=O)[C@H](CCCCN)NC(C)=O)C(=O)N[C@@H](CCCCN)C(=O)N[C@@H](Cc1c[nH]cn1)C(=O)N[C@@H](Cc1ccccc1)C(=O)N[C@@H](CCCNC(=N)N)C(=O)N[C@@H](Cc1c[nH]c2ccccc12)C(=O)NCC(=O)N[C@@H](CCCCN)C(=O)N1CCC[C@H]1C(=O)N[C@H](C(N)=O)C(C)C` [KKK-MSH] (Ac-KYKMKHFRWGKPV-NH2) the “concentration at which a bactericidal effect (> 3 log reduction) was achieved” value [1] was 1 µM, the “incubation time to complete eradication of the cells” value ([1]; logarithmic phase, 10^5 CFU/mL, HEPES-glucose buffer, 37 °C, peptide 1 µM) was at most 15 min and the “incubation time to complete eradication of the cells” value ([1]; logarithmic phase, 10^5 CFU/mL, HEPES-glucose buffer, 37 °C, peptide 2 µM) was at most 15 min. For the same molecule, the “log reduction in cell viability (bactericidal effect)” value ([1]; logarithmic phase, 10^5 CFU, peptide 1 µM, within 15 min) was over 3 log, the “complete eradication of the cells, in words” value ([1]; logarithmic phase, 10^6 CFU/mL, peptide 1 µM) was “not at 1 µM concentration” and the “incubation time to complete eradication of the cells” value ([1]; logarithmic phase, 10^6 CFU/mL, peptide 2 µM) was 60 min. For the same molecule, the “incubation time to complete eradication of the cells” value ([1]; logarithmic phase, 10^6 CFU/mL, peptide 5 µM) was 30 min, the “incubation time to complete eradication of the cells” value ([1]; logarithmic phase, 10^6 CFU/mL, peptide 10 µM) was 15 min and the “incubation time to no viable cells” value ([1]; logarithmic phase, 10^7 CFU/mL, peptide 10 µM) was 1 h. The “lowest concentration at which the bactericidal effect was maintained” value ([1]; logarithmic phase, high cell density) was 2 µM, the “incubation time to complete removal of the cells” value ([2]; peptide 1 µM) was 2 h and the “log reduction in the viability of the stationary phase cells” value ([2]; peptide 1 µM, 1 h) was 2.5 log. For the same molecule, the “incubation time to eradication of the stationary phase cells” value ([2]; peptide 10 µM) was 30 min, the “%NPN uptake” value [3, 7] was 30.7% and the “%NPN uptake” value ([3]; peptide 2 μM) was 34%. The “%NPN uptake” value ([3]; peptide 5 μM) was 55.6%, the “%NPN uptake” value ([3]; peptide 10 μM) was 77.6% and the “%NPN uptake” value [3, 8] was 86%. The “lowest concentration that induced depolarization of E. coli inner membrane” value [4] was 2 µM, the “log reduction in cell viability of dye-loaded cells” value (shortened to “log reduction … of dye-loaded cells”) ([5]; peptide 5 µM, 2 min exposure) was 1.73 log and the “log reduction … of dye-loaded cells” value [5, 9] was 2.1 log. For the same molecule, the PI positive cells [6] was “more than 80%” and the “cell viability on plating the cell suspension used for the PI uptake assay, in words” value [6] was “significant reduction in the cell viability”.

With `CSCC[C@H](NC(=O)[C@H](CCCCN)NC(=O)[C@H](Cc1ccc(O)cc1)NC(=O)[C@H](CCCCN)NC(C)=O)C(=O)N[C@@H](C)C(=O)N[C@@H](Cc1c[nH]cn1)C(=O)N[C@@H](Cc1ccccc1)C(=O)N[C@@H](CCCNC(=N)N)C(=O)N[C@@H](Cc1c[nH]c2ccccc12)C(=O)NCC(=O)N[C@@H](CCCCN)C(=O)N1CCC[C@H]1C(=O)N[C@H](C(N)=O)C(C)C` [KKA-MSH] (Ac-KYKMAHFRWGKPV-NH2) the “concentration at which a bactericidal effect (> 3 log reduction) was achieved” value [1] was 5 µM, the “log reduction in cell viability” value ([1]; logarithmic phase, 10^5 CFU/mL, HEPES-glucose buffer pH 7.4, 37 °C, peptide 1 µM, 1 h, three independent experiments) was 1.8 ± 0.1 log and the “log reduction in cell viability” value ([1]; logarithmic phase, 10^5 CFU/mL, HEPES-glucose buffer pH 7.4, 37 °C, peptide 1 µM, 2 h, three independent experiments) was 2.1 ± 0.1 log. For the same molecule, the “log reduction in cell viability” value ([1]; logarithmic phase, 10^5 CFU/mL, HEPES-glucose buffer pH 7.4, 37 °C, peptide 2 µM, 1 h, three independent experiments) was 2.7 ± 0.3 log, the “log reduction in cell viability” value ([1]; logarithmic phase, 10^5 CFU/mL, HEPES-glucose buffer pH 7.4, 37 °C, peptide 2 µM, 2 h, three independent experiments) was 2.9 ± 0.2 log and the “change of killing activity at 5 µM against lower concentrations, in words” value ([1]; logarithmic phase, 10^5 CFU/mL, peptide 5 µM) was “no change in its activity”. For the same molecule, the “bactericidal effect (> 3 log reduction), in words” value ([1]; logarithmic phase, 10^5 CFU/mL, peptide 2, 5 and 10 µM, 1 h of incubation) was “accomplished bactericidal effect”, the “log reduction in cell viability” value ([1]; logarithmic phase, 10^6 CFU/mL, peptide 10 µM, 2 h, three independent days) was 3.5 ± 0.2 log and the “log reduction in cell viability” value ([1]; logarithmic phase, 10^7 CFU/mL, peptide 10 µM, 2 h, three independent days) was 2.7 ± 0.02 log. The “log reduction in cell viability” value ([2]; HEPES-glucose buffer, 37 °C, peptide 10 µM, 2 h, mean ± SE, three independent days, SEM) was 2.2 ± 0.2 log, the “killing activity against stationary phase cells, in words” value ([2]; peptide 10 µM, up to 2 h) was “could not obliterate the stationary phase cells” and the “%NPN uptake” value [3, 7] was 12.5%. The “%NPN uptake” value [3, 8] was 55%, the “lowest concentration that induced depolarization of E. coli inner membrane” value [4] was 2 µM and the “log reduction … of dye-loaded cells” value ([5]; peptide 5 µM, 2 min exposure) was 1 log. The “log reduction … of dye-loaded cells” value [5, 9] was 1 log, the PI positive cells [6] was “more than 80%” and the “cell viability on plating the cell suspension used for the PI uptake assay, in words” value [6] was “significant reduction in the cell viability”.
